{"source": "ChEMBL document CHEMBL1131764", "about": "“Solid phase synthesis and biological activities of [Arg8]-vasopressin methylenedithioether” (1999)", "key": {"[1]": {"system": "Rattus norvegicus", "assay": "Antidiuretic test on conscious rats was determined", "format": "functional, Urine"}, "[2]": {"species": "Rattus norvegicus", "assay": "In vitro biological activity in the absence of magnesium ions was determined in rats by Uterotonic test", "format": "functional"}, "[3]": {"species": "Rattus norvegicus", "assay": "Vasopressor test using phonoxybenzamine treated male rats was determined", "format": "functional"}}}
{"smiles": "NC(=O)CC[C@@H]1NC(=O)[C@H](Cc2ccccc2)NC(=O)[C@H](Cc2ccc(O)cc2)NC(=O)[C@@H](N)CSCSC[C@@H](C(=O)N2CCC[C@H]2C(=O)N[C@@H](CCCN=C(N)N)C(=O)NCC(N)=O)NC(=O)[C@H](CC(N)=O)NC1=O", "values": [{"measurement": "Activity", "setting": "[1]", "result": 46.5, "unit": "IU mg-1"}, {"measurement": "Activity", "setting": "[2]", "result": 1.4, "unit": "IU mg-1"}, {"measurement": "Activity", "setting": "[3]", "result": 55.3, "unit": "IU mg-1"}]}
{"smiles": "N=C(N)NCCC[C@H](NC(=O)[C@@H]1CCCN1C(=O)[C@@H]1CSSC[C@H](N)C(=O)N[C@@H](Cc2ccc(O)cc2)C(=O)N[C@@H](Cc2ccccc2)C(=O)N[C@@H](CCC(N)=O)C(=O)N[C@@H](CC(N)=O)C(=O)N1)C(=O)NCC(N)=O", "note": "[VASOPRESSIN]", "values": [{"measurement": "Activity", "setting": "[1]", "result": 465, "unit": "IU mg-1"}, {"measurement": "Activity", "setting": "[2]", "result": 17, "unit": "IU mg-1"}, {"measurement": "Activity", "setting": "[3]", "result": 412, "unit": "IU mg-1"}]}
